Measurements reported in patent publication US20260133203A1, “DETECTION OF FUMARATE-DERIVED MODIFICATION IN A TEST SAMPLE” (UNIVERSITY OF SOUTH CAROLINA, priority 2017, published 2026).
Structures can show the parent of a compound that is named as a salt.

Test system: primary rat neurons
Test: LC-MS/MS identification of succinated proteins in primary rat neurons
Type: cell-based
Details: DMF-treated primary rat neurons, modified by DMF or MMF
Procedure: Primary neurons from newborn rat brain cortices were isolated and cultured using an adaptation of methods described previously. Briefly, postnatal day 1 rats were sacrificed by decapitation, the brains were aseptically dissected, and cortices were separated from the rest of the brain in ice-cold Hibernate®-A medium (Life Technologies) containing 2% (v/v) B-27 supplement (Life Technologies) and 0.5 mM glutamine (InvitrogenTM). The tissue was minced in fragments of about 1 mm3 with a scalpel and subjected to digestion with 2 mg/ml papain (Worthington) in the supplemented Hibernate®-A medium for 20 minutes at 30° C. in a shaker incubator set at 100 rpm. […] After a centrifugation at 500 g for 5 min at room temperature, cells were resuspended in NeurobasalTM-A medium containing 0.5 mM glutamine, 2% B-27 supplement, and 5 ng/ml bFGF (InvitrogenTM); counted and plated on 24-well plates pretreated with 0.01% poly-L-lysine (Sigma-AldrichTM) at a density of 200,000 cells/well. […] The protein content in the different samples was determined by the Lowry assay. […] After gel extraction, the peptides were re-suspended in 1% acetic acid and analyzed on a DionexTM […] system (Thermo ScientificTM, Rockford, IL) coupled to an Orbitrap Velos ProTM mass spectrometer (Thermo ScientificTM, Rockford, IL). […]

Q: Which “number of succinated proteins confirmed” value does the source give for `COC(=O)/C=C/C(=O)OC` [DMF, dimethyl fumarate] here?
A: Its value is 4.
